From patent publication US20230278972A1, “SUBSTITUTED HALOALKYL SULFONANILIDE HERBICIDES” (FMC Corporation, priority 2020, published 2023)

How the values were obtained:
Assay type in all cases: in vivo
[1] = system: Ryegrass, Italian (Italian ryegrass, Lolium multiflorum); assay: Test A1 preemergence, Ryegrass, Italian
Procedure, shortened: (§1)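 Pre: seeds in loam/sand blend, directed soil spray. Post: potted plants, same soil, 2–10 cm, 1–2 leaf stage. Chemicals in non-phytotoxic solvent + surfactant for both.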

rice (Oryza sativa) = assay: Test B1 flooded paddy test, rice; settings: 250 g ai/ha, Flood, applied to paddy water, 2-leaf stage, visually evaluated after 10 to 14 days
From the text: (§2) A dash (-) response means no test result.

[2] = system: Pigweed, Palmer (palmer amaranth, palmer pigweed, Amaranthus palmeri); assay: Test A1 preemergence, Pigweed, Palmer
Procedure, shortened: as §1

[3] = system: Foxtail, Giant (giant foxtail, Setaria faberi); assay: Test A1 preemergence, Foxtail, Giant
Procedure, shortened: as §1

[4] = system: wheat (Triticum aestivum); assay: Test A1 postemergence, wheat; settings: Postemergence
Procedure, shortened: (§3)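 Both timings started from seed in a loam-sand blend. Preemergence pots got a directed soil application immediately; postemergence pots were sprayed when seedlings had one or two leaves and stood 2–10 cm. Each compound was prepared in a non-phytotoxic solvent plus surfactant.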

[5] = system: barnyardgrass (Echinochloa crus-galli); assay: Test B1 flooded paddy test, barnyardgrass; settings: 250 g ai/ha, Flood, applied to paddy water, 2-leaf stage, visually evaluated after 10 to 14 days
From the text: as §2

soybean (Glycine max) = assay: Test A1 preemergence, soybean
Procedure, shortened: as §1

[6] = system: Foxtail, Giant (giant foxtail, Setaria faberi); assay: Test A1 postemergence, Foxtail, Giant; settings: Postemergence
Procedure, shortened: as §3

[7] = system: blackgrass (Alopecurus myosuroides); assay: Test A1 postemergence, blackgrass; settings: Postemergence, 0 to 100 scale (0 no effect, 100 complete control)
Procedure, shortened: as §3

corn (Zea mays) = assay: Test A1 preemergence, corn
Procedure, shortened: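 Herbicidal response was scored on plants treated either preemergence, by directed spray onto soil of a loam–sand blend after sowing, or postemergence on potted plants at the one- to two-leaf stage, 2–10 cm high. Test chemicals were carried in a non-phytotoxic solvent mix with surfactant.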

[8] = 31 g ai/ha, 0 to 100 scale (0 no effect, 100 complete control)
[9] = 125 g ai/ha, 0 to 100 scale, 0 no effect, 100 complete control
[10] = 31 g ai/ha, 0 to 100 scale (0 no effect, 100 complete control), 10 days

Structure (SMILES) | Plant response rating, Ryegrass, Italian [1, 8] | Plant response rating, Ryegrass, Italian [1, 9] | Plant response rating, Rice (0 to 100 scale, 0 is no effect, 100 is complete control) (rice (Oryza sativa)) | Plant response rating, Pigweed, Palmer [2, 8] | Plant response rating, Pigweed, Palmer [2, 9] | Plant response rating, Foxtail, Giant [3, 8] | Plant response rating, Foxtail, Giant [3, 9] | Plant response rating, Wheat [4, 10] | Plant response rating, Wheat ([4]; 125 g ai/ha, 0 to 100 scale) | Plant response rating, Barnyardgrass (0 to 100 scale, 0 is no effect, 100 is complete control) [5] | Plant response rating, Soybean (soybean (Glycine max); [8]) | Plant response rating, Soybean (soybean (Glycine max); [9]) | Plant response rating, Foxtail, Giant [6, 10] | Plant response rating, Foxtail, Giant ([6]; 125 g ai/ha, 0 to 100 scale) | Plant response rating, Blackgrass ([7]; 31 g ai/ha, 10 days) | Plant response rating, Blackgrass ([7]; 125 g ai/ha) | Plant response rating, Corn (corn (Zea mays); [8]) | Plant response rating, Corn (corn (Zea mays); [9])
CCc1cc(C)c(NS(=O)(=O)C(F)(F)F)cc1C1=NOC2CCCC12 (stereo not drawn) [Compound 305] | 40 | 90 | 0 | 40 | 60 | 20 | 90 | 50 | 60 | 90 | 0 | 40 | 20 | 60 | 0 | 0 | 10 | 90
CCc1cc(C)c(C2=NOC3(CCCC3)C2)cc1NS(=O)(=O)C(F)(F)F [Compound 311] | 0 | 60 | 0 | 30 | 30 | 0 | 10 | 0 | 0 | 0 | 0 | 0 | 0 | 20 | 0 | 0 | 0 | 0
Cc1c(C(=O)N2CCOCC2)cc(N(COC(=O)C(C)(C)C)S(=O)(=O)C(F)(F)F)c(C)c1C [Compound 324, [[(Trifluoromethyl)sulfonyl][2,3,4-trimethyl-5-(4-morpholinylcarbonyl)phenyl]amino]methyl 2,2-dimethylpropanoate] | 20 | 100 | 0 | 100 | 100 | 90 | 100 | 0 | 30 | 90 | 20 | 60 | 20 | 90 | 0 | 0 | 20 | 40
Cc1c(NS(=O)(=O)C(F)(F)F)cc(C(=O)N2CCCCC2)c(C)c1C [Compound 326] | 20 | 70 | 0 | 90 | 100 | 100 | 100 | 0 | 0 | 0 | 40 | 90 | 10 | 30 | 0 | 0 | 0 | 90
